Source: US20140023602A1, “EXTERNAL PREPARATION FOR SKIN CONTAINING A PHOSPHORYLATED SACCHARIDE” (EZAKI GLICO CO., LTD., priority 2005, published 2014)
Values joined by “and” are separate entries in the source; they are usually repeats but may differ in a detail not shown here. Identical values can stand only once.

Assays:
[1] = tested on: Normal human skin fibroblast cells; assay: Collagen production by human skin fibroblast, Sircol collagen assay; format: cell-based
Procedure: (§1) Normal human skin fibroblast cells were adjusted with 10% D-MEM (manufactured by Invitrogen) to a density of 2.5×10^4 cells per well, and preincubated on the 96-well plate for 24 hours. After removal of the medium, phosphorylated saccharide calcium salt adjusted to a concentration of 1% with 4% D-MEM was added to each well as a test sample, and then the mixture was cultured at 37° C. under 5% CO2 for 72 hours. After the completion of the culture, the amount of collagen in the medium was measured. The amount of collagen was measured by using a Sircol collagen assay Kit (manufactured by Biocolor Ltd.).
(§2) Normal human skin fibroblast cells were adjusted with 10% D-MEM (manufactured by Invitrogen) to a density of 2.5×10^4 cells per well, and preincubated on the 96-well plate for 24 hours. After removal of the medium, phosphorylated saccharide calcium salt adjusted to a concentration of 1% with 4% D-MEM and 0.0044% ascorbic acid as a test sample, or 0.0044% ascorbic acid as a control was added to each well, and then the mixture was cultured at 37° C. under 5% CO2 for 72 hours. After the completion of the culture, the amounts of collagen in the medium and on the cell surface were measured. The amount of collagen was measured by using a Sircol collagen assay Kit (manufactured by Biocolor Ltd.). The collagen on cell surface was measured after pepsin treatment.
as §1, with “potassium” for “calcium”, “then” for “then the mixture was”
as §2, with “phosphorylated saccharide potassium salt adjusted” for “phosphorylated saccharide calcium salt adjusted”, “acid as control was” for “acid as a control was”, “medium and the cell” for “medium and on the cell”

[2] = buffer; for Water retention ratio: Remaining ratio after 1 minute (%): 1 min
Procedure: 0.1% to 1% Aqueous phosphorylated saccharide mineral salt solutions were prepared. Ten μl/paper of the aqueous phosphorylated saccharide mineral salt solution was impregnated into a paper disc (8 mm) [manufactured by Advantech], and the water-retention effect was evaluated by measuring the remaining water over time for 10 minutes under a constant condition. For comparison, 0.1% solution of hyaluronic acid or 1% solution of glycerol, which are known as water retention component, were used. Distilled water was used as a control.

[3] = inorganic chloride as comparison, concentration not given

Compound	induction of collagen production (in words) [1, 3]	Water retention ratio: Remaining ratio after 1 minute (%) [2] [%]	Water retention ratio: Remaining ratio after 10 minutes (%) [2] [%]	also measured
[Cl-].[K+] [potassium chloride]				induction of the collagen production (amount of collagen) ([1]; inorganic chloride as comparison, concentration not given, 72 hours): 2.2 µg/mL
[Ca+2].[Cl-].[Cl-] [calcium chloride]	no induction of collagen production was observed			
hyaluronic acid		98.84	83.73	
[Cl-].[Cl-].[Mg+2] [magnesium chloride]	no significant collagen production induction was observed			
O=C1O[C@H]([C@@H](O)CO)C(O)=C1O [ascorbic acid]				amount of collagen in the medium ([1]; 0.0044% ascorbic acid alone, 72 hours): 55.1 µg/mL and 44.1 µg/mL and 50.1 µg/mL and 52.1 µg/mL; amount of collagen on the cell surface ([1]; 0.0044% ascorbic acid alone, 72 hours, after pepsin treatment): 23.1 µg/mL and 23.0 µg/mL and 21.3 µg/mL; increase of amount of collagen in the medium compared to control well ([1]; 0.0044% ascorbic acid in 4% FBS-DMEM, 72 hours): 1.4 µg
OCC(O)CO [glycerol]		98.84	88.23	
